The source of these data is US8791145B2, “Agricultural formulations with acyl morpholines and polar aprotic co-solvents” (Akzo Nobel Chemicals International B.V., priority 2010, dated 2014).

Common to all, as to format: physicochemical
The nature of data set [1]: Solubility in acyl morpholines. The note with it: 23° C. How it is done: Various agriculturally active ingredients were dissolved in N-formyl morpholine, N-acetyl morpholine and N-propionyl morpholine in order to evaluate the solubility of the active ingredients in the solvents. This was done by adding the active ingredient to a beaker and thereafter adding the solvent until a clear solution was obtained. The solutions were continually stirred at a temperature of 23° C. during the experiments. When everything had been dissolved, the beakers were left without stirring for 24 h to see if the solution was stable (i.e. no crystallization).

Data set [2] is described as follows: Dilution of Amicarbazone formulation in water, ocular inspection. Also on record: key: +: No crystals; −: Permanent crystals. The following applies: 100 g/L diluted to 7 g/L. How it is done:
The co-solvents used were propylene carbonate (PC), dimethylformamide (DMF) and ethyl lactate (EL). The amount of each co solvent, in % by weight of the total weight of morpholine and co-solvent, can be seen in table 2. The solutions were diluted in local tap water to an end concentration of 7 g/L and the dilution was judged by ocular inspection with the naked eye, and in the table below the following is used: • + No crystals • − Permanent crystals

Data set [3] in a line: Differential scanning calorimetry, enthalpy of evaporation. The note with it: DSC 20° C. to 300° C., 5° C./minute. How it is done: To monitor the enthalpy of evaporation differential scanning calorimetry was used. The reason for these measurements was to determine the cohesion forces between N-formyl morpholine and propylene carbonate. The mixtures (N-formyl morpholine/propylene carbonate in different ratio) were scanned from 20° C. to 300° C. with a temperature increase of 5° C./minute, using a DSC1 calorimeter from Mettler Toledo with STARe software.

As to `COc1c(Cl)ccc(Cl)c1C(=O)O` [Dicamba], in data set [1], the “Dissolution of active ingredient into N-acetyl morpholine (NAM)” value is >100 grams of active ingredient in 100 g solvent, the “Dissolution of active ingredient into N-formyl morpholine (NFM)” value was >100 grams of active ingredient in 100 g solvent and the “Dissolution of active ingredient into N-propionyl morpholine (NPM)” value was >100 grams of active ingredient in 100 g solvent.

For the molecule `CC(C)c1nn(C(=O)NC(C)(C)C)c(=O)n1N` [Amicarbazone], the “Crystallization upon dilution in water” value is given as “−” in data set [2] (NAM, 0% DMF); “−” in data set [2] (NAM, 0% EL); “−” in data set [2] (NAM, 0% PC); “−” in data set [2] (NAM, 5% DMF); “−” in data set [2] (NAM, 5% EL); “−” in data set [2] (NAM, 5% PC). Further, the “Crystallization upon dilution in water” value in data set [2] (NAM, 10% DMF) is listed as “−”; in data set [2] (NAM, 10% EL), “−”; in data set [2] (NAM, 10% PC), “−”; in data set [2] (NAM, 20% DMF), “−”; in data set [2] (NAM, 20% EL), “−”; in data set [2] (NAM, 20% PC) it was “−”. The “Crystallization upon dilution in water” value in data set [2] (NAM, 30% DMF) is recorded as “−”; in data set [2] (NAM, 30% EL) it was “−”; in data set [2] (NAM, 30% PC), “−”; in data set [2] (NAM, 50% DMF), “−”; in data set [2] (NAM, 50% EL) it was “−”; in data set [2] (NAM, 50% PC), “−”. Further, the “Crystallization upon dilution in water” value in data set [2] (NAM, 95% DMF) is given as “+”; in data set [2] (NAM, 95% EL) it was “−”; in data set [2] (NAM, 95% PC) it was “−”; in data set [2] (NFM, 0% DMF), “−”; in data set [2] (NFM, 0% EL), “−”; in data set [2] (NFM, 0% PC), “−”. The “Crystallization upon dilution in water” value is on record as “−” in data set [2] (NFM, 5% DMF); “−” in data set [2] (NFM, 5% EL); “−” in data set [2] (NFM, 5% PC); “−” in data set [2] (NFM, 10% DMF); “−” in data set [2] (NFM, 10% EL); “−” in data set [2] (NFM, 10% PC). Besides, the “Crystallization upon dilution in water” value in data set [2] (NFM, 20% DMF) is recorded as “−”; in data set [2] (NFM, 20% EL) it was “−”; in data set [2] (NFM, 20% PC), “+”; in data set [2] (NFM, 30% DMF), “−”; in data set [2] (NFM, 30% EL), “−”; in data set [2] (NFM, 30% PC) it was “−”. For the same molecule, the “Crystallization upon dilution in water” value in data set [2] (NFM, 50% DMF) is given as “−”; in data set [2] (NFM, 50% EL) it was “−”; in data set [2] (NFM, 50% PC) it was “−”; in data set [2] (NFM, 95% DMF) it was “+”; in data set [2] (NFM, 95% EL), “−”; in data set [2] (NFM, 95% PC), “−”.

`CC1COC(=O)O1` (centres unmarked) [0:100, propylene carbonate]: the Enthalpy of evaporation in data set [3] is on record as 392 J/g.

For `O=CN1CCOCC1` [100:0, 4-formyl morpholine], the Enthalpy of evaporation in data set [3] is recorded as 382 J/g.

In the case of `CC1(C)CCC(Cc2ccc(Cl)cc2)C1(O)Cn1cncn1` (centres unmarked) [Metconazole], in data set [1], the “Dissolution of active ingredient into N-acetyl morpholine (NAM)” value was >25 grams of active ingredient in 100 g solvent, the “Dissolution of active ingredient into N-formyl morpholine (NFM)” value was >25 grams of active ingredient in 100 g solvent and the “Dissolution of active ingredient into N-propionyl morpholine (NPM)” value was >25 grams of active ingredient in 100 g solvent.
